One substance from patent US20080299109A1, “MECHANISM OF ASTRICYTE-NEURON SIGNALING” (Korea Institute of Science and Technology, priority 2007, published 2008) can be followed below.

For the experiment, the system named is CA1 pyramidal cells. Nature of the experiment: Voltage clamp of CA1 pyramidal cells in hippocampal slices, low Mg2+. It is filed as cell-based, rat. Conditions: −60 mV, thrombin 30 nM, TFLLR 30 μM, with and without APV.

Regarding thrombin, the “amplitude of inward current” value (0.5 μM TTX, 5 μM Mg^2+) is 8.8±3.1 pA. Also, where the note is “TTX, low Mg^2+”, the membrane current variance was found to be 12.4±1.1 pA^2.
